A value given as a limit tells only on which side of the number the result lay.

The first test has as its target T1, recombinant human Meningioma Expressed Antigen 5 (MGEA5), also referred to as O-GlcNAcase (OGA) (Homo sapiens, UniProt O60502).
T1 construct: Full length OGA enzyme was purchased at OnGene (cat #TP322411); purchased OnGene (so in the source)
T1 sequence (O60502 1-916): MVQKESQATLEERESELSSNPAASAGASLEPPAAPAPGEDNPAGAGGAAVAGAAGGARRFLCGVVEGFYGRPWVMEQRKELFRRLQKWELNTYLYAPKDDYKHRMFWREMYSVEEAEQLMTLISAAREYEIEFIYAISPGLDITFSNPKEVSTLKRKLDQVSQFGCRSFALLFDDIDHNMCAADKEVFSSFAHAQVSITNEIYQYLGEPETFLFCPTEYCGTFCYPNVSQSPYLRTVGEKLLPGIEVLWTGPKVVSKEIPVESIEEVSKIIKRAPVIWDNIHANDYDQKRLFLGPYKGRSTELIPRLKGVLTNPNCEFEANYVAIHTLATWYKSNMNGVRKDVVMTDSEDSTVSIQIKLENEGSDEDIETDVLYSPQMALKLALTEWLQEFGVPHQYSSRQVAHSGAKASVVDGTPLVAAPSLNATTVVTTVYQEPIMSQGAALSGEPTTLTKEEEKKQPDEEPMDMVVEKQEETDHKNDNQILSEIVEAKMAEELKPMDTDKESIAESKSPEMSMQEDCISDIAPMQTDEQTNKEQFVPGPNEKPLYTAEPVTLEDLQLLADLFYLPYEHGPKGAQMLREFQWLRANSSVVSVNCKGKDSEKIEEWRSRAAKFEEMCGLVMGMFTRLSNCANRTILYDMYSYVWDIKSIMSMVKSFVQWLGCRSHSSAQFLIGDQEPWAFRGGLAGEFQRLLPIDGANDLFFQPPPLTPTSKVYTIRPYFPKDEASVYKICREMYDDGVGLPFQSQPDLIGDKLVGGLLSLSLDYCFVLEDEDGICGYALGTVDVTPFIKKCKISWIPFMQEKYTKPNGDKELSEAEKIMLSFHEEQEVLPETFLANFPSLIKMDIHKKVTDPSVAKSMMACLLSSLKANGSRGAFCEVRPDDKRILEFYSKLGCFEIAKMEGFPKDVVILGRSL
Description: OGA biochemical assay (inhibition of FM-GlcNAc hydrolysis, fluorescence). Conditions: maximal effect, read-out: Enzymatic Emax (%). In a few lines: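 Full-length recombinant OGA (2 nM) pre-incubated with compound 60 min at room temperature, then FM-GlcNAc (100 µM final) added in citrate/phosphate buffer pH 7.2 with 0.005% Tween-20. After 6 h at room temperature, stopped with carbonate pH 11.0; fluorescein read at 485/538 nm; IC50 and Hill coefficient from curve fit.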
The Emax is the greatest response seen or fitted, relative to the assay's reference. On to `Cc1cc(CN[C@H]2CCCN(C(C)c3nc4c(cc3F)OCCO4)C2)cc(C)n1` (some centres unmarked) [Product 193], for which the Emax worked out at 99%.
As for `CC(c1nc2c(cc1F)OCCO2)N1CCC[C@H](NCc2ccc(F)cc2)C1` (some centres unmarked) [Product 196], the Emax was 95%.
With `Cc1cc(C2CCCN(C(C)c3nc4c(cc3F)OCCO4)C2)cc(C(F)F)n1` (centres unmarked) [Product 187], the Emax amounted to 96%.
Still for that read-out and setting: in the case of `Cc1cc(OC2CCCN(C(C)c3cnc4c(c3)OCCN4)C2)cc(C)n1` (centres unmarked) [Product 14] it was 101%.
For `Cc1cc(CC2(F)CCCN([C@H](C)c3nc4c(cc3F)OCCO4)C2)cc(C)n1` (single isomer, unassigned) [Product 174], the Emax came to 99%.
In the case of `Cc1cc(OC2CCCN(C(C)c3ccc4c(n3)OCCO4)C2)cc(C)n1` (centres unmarked) [Product 136], the Emax was determined as 101%.
For `Cc1cc(C2CCCN(C(C)c3ccc4c(n3)OCCO4)C2)c(F)c(C)n1` (centres unmarked) [Product 185], the Emax was 100%.
Consider `Cc1cc(C[C@H]2CCCN(C(C)c3cnc4c(c3)OCCO4)C2)cc(C)n1` (single isomer, unassigned) [Product 132], for which the Emax is 103%.
Turning to `Cc1cc(CO[C@H]2CCCN(C(C)c3nc4c(cc3F)OCCO4)C2)cc(C)n1` (some centres unmarked) [Product 168], the Emax was 99%.
Take `Cc1cc(C2CCCN(C(C)c3cc4c(cc3F)NCCO4)C2)cc(C)n1` (centres unmarked) [Product 190]: the Emax came out at 101%.
Regarding `COc1cc(C2CCCN(C(C)c3cc4c(cc3F)OCCO4)C2)cc(C(F)(F)F)n1` (centres unmarked) [Product 11], the Emax was found to be 103%.
On to `Cc1cc([C@@H]2CCCN([C@@H](C)c3ccc4c(n3)OCCO4)C2)cc(C)n1` (single isomer, unassigned) [Product 161], for which the Emax is 79%.
In the case of `Cc1cc(NCC2CCCN(C(C)c3ccc4c(c3)OCC4)C2)cc(C(F)(F)F)n1` (centres unmarked) [Product 36], the Emax came to 101%.
In the case of `Cc1cc(NCC2CCCN(C(C)c3ccc4c(n3)OCCO4)C2)cc(C(F)(F)F)n1` (single isomer, unassigned) [Product 33], the Emax was determined as 102%.
In the case of `Cc1cc(NC[C@H]2CCCN(C(C)c3nc4c(cc3F)OCCO4)C2)cc(C)n1` (some centres unmarked) [Product 181], the Emax turned out to be 101%.

The test is the same for the next values; noted with them: read-out: Enzymatic hOGA, pIC50 (converted).
Take `Cc1cc(CN[C@H]2CCCN(C(C)c3nc4c(cc3F)OCCO4)C2)cc(C)n1` (some centres unmarked) [Product 193]: the IC50 was 3.16 nM.
Consider `CC(c1nc2c(cc1F)OCCO2)N1CCC[C@H](NCc2ccc(F)cc2)C1` (some centres unmarked) [Product 196], for which the IC50 is 39.8 nM.
Still for that read-out and setting: then `Cc1cc(C2CCCN(C(C)c3nc4c(cc3F)OCCO4)C2)cc(C(F)F)n1` (centres unmarked) [Product 187], with 7.94 nM; and `Cc1cc(OC2CCCN(C(C)c3cnc4c(c3)OCCN4)C2)cc(C)n1` (centres unmarked) [Product 14], with 5.01 nM.
With `Cc1cc(CC2(F)CCCN([C@H](C)c3nc4c(cc3F)OCCO4)C2)cc(C)n1` (single isomer, unassigned) [Product 174], the IC50 is 6.31 nM.
On to `Cc1cc(OC2CCCN(C(C)c3ccc4c(n3)OCCO4)C2)cc(C)n1` (centres unmarked) [Product 136], for which the IC50 is 3.98 nM.
Same read-out and setting: in the case of `Cc1cc(C2CCCN(C(C)c3ccc4c(n3)OCCO4)C2)c(F)c(C)n1` (centres unmarked) [Product 185] it was 15.8 nM; in that of `Cc1cc(C[C@H]2CCCN(C(C)c3cnc4c(c3)OCCO4)C2)cc(C)n1` (single isomer, unassigned) [Product 132], 5.01 nM; in that of `Cc1cc(CO[C@H]2CCCN(C(C)c3nc4c(cc3F)OCCO4)C2)cc(C)n1` (some centres unmarked) [Product 168], 3.16 nM.
For the molecule `Cc1cc(C2CCCN(C(C)c3cc4c(cc3F)NCCO4)C2)cc(C)n1` (centres unmarked) [Product 190], the IC50 was 10 nM.
Consider `COc1cc(C2CCCN(C(C)c3cc4c(cc3F)OCCO4)C2)cc(C(F)(F)F)n1` (centres unmarked) [Product 11], for which the IC50 was 20 nM.
Consider `Cc1cc([C@@H]2CCCN([C@@H](C)c3ccc4c(n3)OCCO4)C2)cc(C)n1` (single isomer, unassigned) [Product 161], for which the IC50 is 3160 nM.
For `Cc1cc(NCC2CCCN(C(C)c3ccc4c(n3)OCCO4)C2)cc(C(F)(F)F)n1` (single isomer, unassigned) [Product 33], the IC50 is 2.51 nM.
Regarding `Cc1cc(NC[C@H]2CCCN(C(C)c3nc4c(cc3F)OCCO4)C2)cc(C)n1` (some centres unmarked) [Product 181], the IC50 is 3.98 nM.

A further test has as its target T2, OGA (Homo sapiens, UniProt O60502).
T2 construct: endogenous in cells; host or cells: HEK293 cells inducible for P301L mutant human Tau (2N4R)
T2 sequence (O60502 1-916): T1 sequence (O60502 1-916)
Description: OGA cellular assay (ICC detection of O-GlcNAcylated proteins in HEK293 cells inducible for P301L mutant human Tau). In kind it is cell-based. Conditions: HEK293, HEK293 cells inducible for P301L mutant human Tau, maximal effect; Thiamet G 200 uM as maximum. Summed up:
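HEK293 cells inducible for P301L Tau, in low-glucose assay medium, treated 6 h with compound at 0.2% DMSO. O-GlcNAcylated proteins detected by CTD110.6 immunostaining, imaged at 488 nm with Hoechst nuclear counts for toxicity. IC50 from non-linear regression, 200 uM Thiamet G as maximum.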
On to `Cc1cc(CN[C@H]2CCCN(C(C)c3nc4c(cc3F)OCCO4)C2)cc(C)n1` (some centres unmarked) [Product 193], for which the Emax was found to be 95%.
With `CC(c1nc2c(cc1F)OCCO2)N1CCC[C@H](NCc2ccc(F)cc2)C1` (some centres unmarked) [Product 196], the Emax worked out at 70%.
As to `Cc1cc(C2CCCN(C(C)c3nc4c(cc3F)OCCO4)C2)cc(C(F)F)n1` (centres unmarked) [Product 187], the Emax is 92%.
With `Cc1cc(OC2CCCN(C(C)c3cnc4c(c3)OCCN4)C2)cc(C)n1` (centres unmarked) [Product 14], the Emax came to 60%.
Take `Cc1cc(CC2(F)CCCN([C@H](C)c3nc4c(cc3F)OCCO4)C2)cc(C)n1` (single isomer, unassigned) [Product 174]: the Emax is 75%.
Regarding `Cc1cc(OC2CCCN(C(C)c3ccc4c(n3)OCCO4)C2)cc(C)n1` (centres unmarked) [Product 136], the Emax was determined as 60%.
For the molecule `Cc1cc(C2CCCN(C(C)c3ccc4c(n3)OCCO4)C2)c(F)c(C)n1` (centres unmarked) [Product 185], the Emax was found to be 65%.
Still for that read-out and setting: in the case of `Cc1cc(C[C@H]2CCCN(C(C)c3cnc4c(c3)OCCO4)C2)cc(C)n1` (single isomer, unassigned) [Product 132] it was 77%.
Still for that read-out and setting: in the case of `Cc1cc(CO[C@H]2CCCN(C(C)c3nc4c(cc3F)OCCO4)C2)cc(C)n1` (some centres unmarked) [Product 168] it was 69%; in that of `Cc1cc(C2CCCN(C(C)c3cc4c(cc3F)NCCO4)C2)cc(C)n1` (centres unmarked) [Product 190], 82%.
For the molecule `COc1cc(C2CCCN(C(C)c3cc4c(cc3F)OCCO4)C2)cc(C(F)(F)F)n1` (centres unmarked) [Product 11], the Emax was 70%.
For `Cc1cc([C@@H]2CCCN([C@@H](C)c3ccc4c(n3)OCCO4)C2)cc(C)n1` (single isomer, unassigned) [Product 161], the Emax was -4%.
For `Cc1cc(NCC2CCCN(C(C)c3ccc4c(c3)OCC4)C2)cc(C(F)(F)F)n1` (centres unmarked) [Product 36], the Emax is 88%.
On the same count and under the same terms, in the case of `Cc1cc(NCC2CCCN(C(C)c3ccc4c(n3)OCCO4)C2)cc(C(F)(F)F)n1` (single isomer, unassigned) [Product 33] it was 83%; in that of `Cc1cc(NC[C@H]2CCCN(C(C)c3nc4c(cc3F)OCCO4)C2)cc(C)n1` (some centres unmarked) [Product 181], 92%.

The same test, now with this note: HEK293 cells inducible for P301L mutant human Tau, 6 hours incubation; read-out: Cellular hOGA; pEC50 (converted).
For the molecule `Cc1cc(CN[C@H]2CCCN(C(C)c3nc4c(cc3F)OCCO4)C2)cc(C)n1` (some centres unmarked) [Product 193], the EC50 was 31.6 nM.
For the molecule `CC(c1nc2c(cc1F)OCCO2)N1CCC[C@H](NCc2ccc(F)cc2)C1` (some centres unmarked) [Product 196], the EC50 was 251 nM.
Take `Cc1cc(C2CCCN(C(C)c3nc4c(cc3F)OCCO4)C2)cc(C(F)F)n1` (centres unmarked) [Product 187]: the EC50 was 12.6 nM.
Still for that read-out and setting: in the case of `Cc1cc(OC2CCCN(C(C)c3cnc4c(c3)OCCN4)C2)cc(C)n1` (centres unmarked) [Product 14] it was 631 nM; in that of `Cc1cc(CC2(F)CCCN([C@H](C)c3nc4c(cc3F)OCCO4)C2)cc(C)n1` (single isomer, unassigned) [Product 174], 63.1 nM; in that of `Cc1cc(OC2CCCN(C(C)c3ccc4c(n3)OCCO4)C2)cc(C)n1` (centres unmarked) [Product 136], 631 nM.
As for `Cc1cc(C2CCCN(C(C)c3ccc4c(n3)OCCO4)C2)c(F)c(C)n1` (centres unmarked) [Product 185], the EC50 was 50.1 nM.
Consider `Cc1cc(C[C@H]2CCCN(C(C)c3cnc4c(c3)OCCO4)C2)cc(C)n1` (single isomer, unassigned) [Product 132], for which the EC50 was 79.4 nM.
The same measure, in the same setting: in the case of `Cc1cc(CO[C@H]2CCCN(C(C)c3nc4c(cc3F)OCCO4)C2)cc(C)n1` (some centres unmarked) [Product 168] it was 31.6 nM; in that of `Cc1cc(C2CCCN(C(C)c3cc4c(cc3F)NCCO4)C2)cc(C)n1` (centres unmarked) [Product 190], 50.1 nM; in that of `COc1cc(C2CCCN(C(C)c3cc4c(cc3F)OCCO4)C2)cc(C(F)(F)F)n1` (centres unmarked) [Product 11], 316 nM.
As for `Cc1cc([C@@H]2CCCN([C@@H](C)c3ccc4c(n3)OCCO4)C2)cc(C)n1` (single isomer, unassigned) [Product 161], the EC50 was above 1000 nM.
`Cc1cc(NCC2CCCN(C(C)c3ccc4c(c3)OCC4)C2)cc(C(F)(F)F)n1` (centres unmarked) [Product 36]: the EC50 is 126 nM.
As to `Cc1cc(NCC2CCCN(C(C)c3ccc4c(n3)OCCO4)C2)cc(C(F)(F)F)n1` (single isomer, unassigned) [Product 33], the EC50 is 31.6 nM.
In the case of `Cc1cc(NC[C@H]2CCCN(C(C)c3nc4c(cc3F)OCCO4)C2)cc(C)n1` (some centres unmarked) [Product 181], the EC50 is 1.58 nM.
